Reference: patent publication US20250325517A1, “ORAL DOSAGE FORMS OF ELRAGLUSIB” (Actuate Therapeutics, Inc., priority 2022, published 2025)

Experiments:
[1] = Solubility of elraglusib in acetone, acetone:water and THF with and without polymers (24 h, visual and HPLC); format: physicochemical
[2] = 50 mg/mL elraglusib solutions in 12 Vehicle Variants, HPLC with and without syringe filtration; format: physicochemical; conditions: no precipitation or haziness, no visible particulates
Protocol: An initial study prepared 50 mg/mL elraglusib solutions in 12 Vehicle Variants.
Each Vehicle Variant was made to 50 mg/mL with elraglusib and was tested (with and without syringe filtration) with respect to: (1) elraglusib main peak Area %, (2) related substance RRT 0.96 Area %, and (3) related Substance Area % RRT 0.97.

in vivo = experiment: in vivo; design: species or system Beagle dogs; conditions: male, Beagle, dog; for AUC(0-inf): AUCINF; for AUC(0-t): AUClast
Protocol: The objective of this study was to evaluate the pharmacokinetic profile of elraglusib following single oral and intravenous doses in Beagle dogs.
The test article (elraglusib in a vehicle of 85% PEG400, 10% ethanol, 5% water (all components are weight/weight/weight)) was administered orally and via intravenous infusion to dogs according to the tables below.
Male Beagle dogs were selected for use in this study. Animals were at least 6 months old and males weighed approximately 9.3-10.8 kilograms at the start of dosing.
The study animals received a single oral dose of elraglusib followed by an approximate 7-day washout period after which they received a single intravenous infusion of elraglusib. Animals underwent standard evaluations such as body weight and clinical observations, and were bled for pharmacokinetics following each dose.
Plasma concentrations of elraglusib were determined for dogs treated with 20 mg/kg elraglusib via oral administration on Day 1 and then again via intravenous infusion on Day 8. […] Individual plasma concentrations were highest approximately 2-8 hours after oral administration (1,410-1,880 ng/mL), and highest at approximately 5 minutes following intravenous administration (11,800-13,600 ng/mL).

[3] = Elra:PVAP and Elra:CAP ASD stability study (XRPD, mDSC, TGA, HPLC, ssNMR); format: physicochemical; conditions: crystallinity marker peak of API
Protocol: Both ASDs stored remained amorphous up to 12 weeks storage under the above-mentioned conditions (FIG. 21). The mDSC of the stability samples was carried out in a hermetically sealed pan without any pin hole, to determine the Tg in the presence of residual solvent or moisture (i.e., wet Tg).
An HPLC chromatogram was also obtained using HPLC monitored at 210 nm for a sample stored for 12 weeks at different conditions.
The first derivative was applied to the stability sample spectra (FIGS. 25-29). For pure amorphous samples, ssNMR produces gaussian curves that when applied to first derivative become a flat baseline. Crystalline material produces Laplacian curves by ssNMR which can be clearly observed after applying the first derivative.
Signal to noise ratio of API reference was 8.18. In all four stability samples, the signal to noise ratio for the first derivative peak at 87 ppm remained <2.
Solid-state NMR experiments were performed on a 2 channel Bruker NEO spectrometer (Bruker, Billerica, MA) operating at 100.52 MHz for 13C and 399.71 MHz for 1H. A Chemagnetics APEX probe, refitted with a 7 mm magic angle spinning module (Revolution NMR, Fort Collins, CO) was used to acquire the data. Each sample was packed into a 7 mm zirconia rotor with Kel-F spacers. The magic angle spinning (MAS) frequency that was used to acquire all of the data was 5 kHz. […]

measured concentration by HPLC ([1]; THF solution, 24 hours (theoretical 37 mg/mL)): 34.68 mg/mL
time remaining soluble ([1]; tetrahydrofuran (THF)): over 24 hours
solubility in Vehicle Variants (visual) [2]: remained soluble at 50 mg/mL
bioavailability (in vivo): 31%
AUClast, IV versus PO (in vivo; 20 mg/kg): approximately 3 fold
AUC (in vivo; iv, 20 mg/kg): 68900 ng·h/mL
highest individual plasma concentrations (in vivo; iv, 20 mg/kg): 11,800-13,600 ng/mL
time of highest individual plasma concentrations (in vivo; iv, 20 mg/kg): approximately 5 minutes
AUC(0-inf) (in vivo; iv, 20 mg/kg): 72800 ng·h/mL
AUC(0-t) (in vivo; iv, 20 mg/kg): 68900 ng·h/mL
Cmax (in vivo; iv, 20 mg/kg): 12800 ng/mL
Tmax (in vivo; iv, 20 mg/kg, Tmax): 4.98 min
half-life (in vivo; iv, 20 mg/kg, t1/2): 6.05 h
AUC (in vivo; po, 20 mg/kg): 21300 ng·h/mL
highest individual plasma concentrations (in vivo; po, 20 mg/kg): 1,410-1,880 ng/mL
time of highest individual plasma concentrations (in vivo; po, 20 mg/kg): 2 to 8 h
AUC(0-inf) (in vivo; po, 20 mg/kg): 22600 ng·h/mL
AUC(0-t) (in vivo; po, 20 mg/kg): 21300 ng·h/mL
Cmax (in vivo; po, 20 mg/kg): 1670 ng/mL
ssNMR Signal to Noise (87-96 ppm), first derivative spectra [3]: 8.18
Structure (SMILES): Cn1cc(C2=C(c3coc4ccc(F)cc34)C(=O)NC2=O)c2cc3c(cc21)OCO3 [elraglusib, 3-(5-fluorobenzofuran-3-yl)-4-(5-methyl-5H-[1,3]dioxolo[4,5-f]indol-7-yl)-1H-pyrrole-2,5-dione]
